Patent publication US20030108872A1, “Genomics-assisted rapid identification of targets” (priority 2000, published 2003)

What was measured:
[1] = system: B. subtilis NO-347 (BD170 thrC::Pspac-murA kanR ΔmurA::CmR); assay: MIC by microbroth dilution in B. subtilis under-expressing murA; type: cell-based; conditions: IPTG 0-0.1 mM, compared to the control strain, FIG. 10
Method: Materials and Methods. The materials are the same as discussed above. Plasmids are listed in Table 4 B. subtilis strains were routinely grown in LB media or on LB agar plates containing 1.5% agar (Sambrook et al., MOLECULAR CLONING: A LABORATORY MANUAL, 2nd ed., Cold Spring Harbor Laboratory Press, 1989). MIC determination is performed using microbroth dilution-cultures grown in Mueller Hinton broth in 96-well microtiter plates purchased from Nunc (Plates—Cat. No. 262162; Lids—Cat. No. 264122). When required, media were supplemented with 5 μg/ml chloramphenicol or 10 μg/ml kanamycin. IPTG was added to culture media at a final concentration of 0.05 mM for routine culture growth of B. subtilis NO-347 (BDI70 thrC::Pspac-murA kan^R ΔmurA::Cm^R), which is dependent on IPTG for growth.
The endogenous murA gene in NO-360 was deleted by allelic replacement as follows (see FIG. 9). DNA fragments flanking the 5′ and 3′ ends of the murA gene were amplified from B. subtilis 168 genomic DNA using primer pairs KO mura F1+R2 and KO murA F2+R1, respectively. The 5′ and 3′ flanking fragments were linked to the Cm^R gene from pEVP3 using the cross-over PCR technique with the primer pair KO mura F1+R1. The resulting PCR product (shown in FIG. 9B) was used to transform naturally competent B. subtilis NO-360. Cm^R clones were selected in the presence of 0.01 mM and 0.05 mM IPTG. Allelic replacement of murA in Cm^R clones was verified by PCR. Strain NO-347 (BD170 thrC::Pspac-murA Kan^R ΔmurA::Cm^R) was chosen for MIC determinations for phosphomycin in presence of various concentrations of the regulator IPTG.
MIC determinations. Determination of minimum inhibitory concentration (MIC) for phosphomycin, novobiocin, erythromycin and trimethoprim lactate were performed in 96-well microliter plates using the microbroth dilution technique as described in NCCLS. 1997. Methods for dilution antimicrobial susceptibility tests for bacteria that grow aerobically-fourth edition; approved standard. NCCLS document M7-A4. NCCLS, Wayne, Pa. For MIC determinations using strain NO-347, various concentrations (0-0.1 mM) were added to the media. Growth was quantitated by OD600 measurements using a SpectroMax 250 plate reader (Molecular Devices).

[2] = system: E. coli MC1061, Ec211, Ec261, Ec239, Ec238; assay: Transformation selection: growth on drug plates of strains over-expressing folA or murA; type: cell-based; conditions: for growth on MHB plates supplemented with drug: 5 μg/ml trimethoprim or 25 μg/ml phosphomycin, no L-arabinose, all strains, FIG. 15
Text: Methods. The genes folA, and murA were amplified from the genomic DNA of E. coli. Each gene was independently cloned in frame into pBAD/Myc-HisB vector, such that expression of the gene is under the regulation of the promoter PBAD. Hexahistidine encoding tags were incorporated into the 3′ end of the gene encoding the C-terminus of the protein through primer design. The construct introduced into the host cells of E. coli MC1061, resulting in Ec211 (construct with folA) and Ec261 (construct with murA).
The entire vector region (araC, PBAD, folA or murA, ampicillin resistance gene) of the above two constructs, but minus the origin, was PCR amplified through primer pairs homologous to regions flanking the origin. The PCR products were then linked at their 5′ ends to the 1 kb region upstream of yibD locus, and linked at their 3′ ends to the 1 kb region downstream of E. coli yibD locus (in effect, replacing yibD) by “crossover PCR” (Kim et al., 1996 Biotechniques 20: 954-5). The linear DNA product was gel purified and introduced into competent and recombinogenic MC1061. Recombinogenic ability was supplied by the red/gam function of plasmid pTP223.
Ec211, […], Ec238, Ec239, and MC1061 were freshly streaked onto Mueller Hinton Broth (MHB) plates. After an overnight incubation at 37° C., they were streaked into different segments onto different selection plates in the order of MHB supplemented with 5 μg/ml trimethoprim, MHB supplemented with 5 μg/ml trimethoprim and 0.1% L-arabinose, MHB supplemented with 25 μg/ml phosphomycin, MHB supplemented with 25 μg/ml phosphomycin and 0.1% L-arabinose, MHB supplemented with 0.1% L-arabinose, and finally plain MHB plates. The plates are 10 cm circular plates filled with 30 ml of media and divided into 6 equal segments. MC1061 was streaked in the first segment, Ec211 in second, Ec261 in third, Ec239 in fourth, Ec238 in fifth and the sixth segment was left blank.

[3] = system: strains carrying the wild-type murA gene (single copy or multiple copies); assay: Growth on MHB plates with phosphomycin, wild-type murA; type: cell-based, E. coli
Method: (§1) E. coli mutants resistant to phosphomycin were obtained by plating E. coli MC1061 cells in the presence of 5 μg/ml phosphomycin (about 5×MIC), in MHB. Colonies of these resistant mutants were picked and repatched on MHB plates supplemented with 5 μg/ml. […] To determine whether the phenotype of phosphomycin resistance is due to these changes in the murA gene, primers murA-F1 and murA-R1 were used to amplify up a region consisting of 1 kb upstream of the murA gene and 1 kb downstream of the murA gene using as template, DNA extracted from MC1061 and from the phosphomycin-resistant murA mutants. The 3.5 kb PCR amplification fragments were cloned into a high copy vector, and 3 independent clones were picked for each type. The clones, carrying multi-copy plasmids with either wild-type murA or mutated mura, were streaked onto MHB plates and on MHB supplemented with 5, 25, and 50 ,μg/ml phosphomycin. The wild-type MC1061 strain (carrying a single copy of the wild-type murA gene) and the original mutants resistant to phosphomycin were used as controls. All strains grew on MHB plates without phosphomycin. On MHB plates with 5 μg/ml phosphomycin, there was slight growth for strains carrying the wild-type murA gene, whether present in single copy or multiple copies, whereas there was robust growth for cells with the mutated murA gene, whether present in single or multiple copies. On MHB plates with 25 μg/ml phosphomycin, there was no growth for strains carrying the wild-type mura gene, whether present in single copy or multiple copies, but there was robust growth for cells carrying single or multiple copies of the mutated murA gene. On MHB plates with 50 μg/ml phosphomycin, there was no growth for strains carrying wild-type murA (whether present in single copy or multiple copies) but slight growth for strains carrying the mutated murA gene whether present in single or multiple copies. Clearly, the mutants isolated because of their phenotype of resistance to phosphomycin carry mutant mura genes which can confer resistance when transferred to other cells by transformation. […]

[4] = system: cells with the mutated murA gene (single or multiple copies); assay: Growth on MHB plates with phosphomycin, mutated murA; type: cell-based, E. coli
Method: as §1

Compound	sensitivity (MIC) on regulated under-expression of murA [1]	growth on MHB plates with drug and L-arabinose (over-expression rescue) ([2]; 5 μg/ml trimethoprim and 0.1% L-arabinose, Ec211 (multiple copies of folA, PBAD))	growth on MHB plates supplemented with drug [2]	growth on MHB plates ([3]; 5 μg/ml phosphomycin)	growth on MHB plates ([3]; 25 μg/ml phosphomycin)	growth on MHB plates ([3]; 50 μg/ml phosphomycin)	growth on MHB plates ([4]; 5 μg/ml phosphomycin)	growth on MHB plates ([4]; 25 μg/ml phosphomycin)	growth on MHB plates ([4]; 50 μg/ml phosphomycin)	growth on MHB plates with drug and L-arabinose (over-expression rescue) ([2]; 25 μg/ml phosphomycin and 0.1% L-arabinose, Ec261 (multiple copies of murA) and Ec238 (two copies of murA))
COc1cc(Cc2cnc(N)nc2N)cc(OC)c1OC [trimethoprim]	does not affect sensitivity	the only strain that grew up	Nothing grew	–	–	–	–	–	–	–
C[C@@H]1O[C@@H]1P(=O)(O)O [phosphomycin]	increased sensitivity	–	Nothing grew	slight growth	no growth	no growth	robust growth	robust growth	slight growth	grew up
